Source: patent publication US20250026752A1, “POSITIVE ALLOSTERIC MODULATORS OF THE MUSCARINIC ACETYLCHOLINE RECEPTOR M4” (Vanderbilt University, priority 2021, published 2025)

Molecular target: T1, human mAChR M4 (Homo sapiens, UniProt P08173)
T1 construct: expressed in transfected cells; host or cells: CHO-K1 (ATCC), stably expressing hM4 and Gqi5
T1 sequence (P08173 1-479): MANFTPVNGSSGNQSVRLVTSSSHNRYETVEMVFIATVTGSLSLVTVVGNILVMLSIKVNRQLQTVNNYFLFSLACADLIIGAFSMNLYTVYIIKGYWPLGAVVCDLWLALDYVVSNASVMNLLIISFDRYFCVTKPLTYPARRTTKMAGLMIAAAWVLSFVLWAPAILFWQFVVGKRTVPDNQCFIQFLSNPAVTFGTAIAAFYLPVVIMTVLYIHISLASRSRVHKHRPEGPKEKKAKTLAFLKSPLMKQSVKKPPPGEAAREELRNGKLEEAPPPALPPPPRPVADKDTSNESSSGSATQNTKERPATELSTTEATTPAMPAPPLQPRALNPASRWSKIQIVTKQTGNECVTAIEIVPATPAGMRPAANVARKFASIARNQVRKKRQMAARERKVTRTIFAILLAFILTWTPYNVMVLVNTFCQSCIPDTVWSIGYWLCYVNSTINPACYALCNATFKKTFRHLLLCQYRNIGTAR
Assay: mAChR M4 cell-based functional assay: calcium flux (Fluo-4, FDSS), positive allosteric modulator activity on the EC20 acetylcholine response, hM4-Gqi5 CHO-K1 cells
Set-up: Emax: dose or concentration left out as unconfirmed
Details: for Emax at 30 µM: CHO-K1, human M4, % ACh maximum at 30 μM; for EC50: human M4, PAM activity on EC20 acetylcholine response, calcium flux, read-out: Human M4 EC50
In short: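 CHO-K1 cells stably expressing human M4 with chimeric Gqi5, loaded with Fluo-4 AM for 50 min at 37° C. Compounds (11-point, 1:3 dilutions) added first, then an acetylcholine EC20 at 144 s; calcium read on FDSS at 1 Hz. EC50 is the half-maximal increase above the EC20 baseline, four-parameter logistic fit.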

Compound	Emax at 30 µM [%]	EC50 [nM]	Emax (CHO-K1) [%]
Fc1cc2c(N3CCc4ncc(C(F)(F)F)cc4C3)nc(Cl)nc2cc1Cl [Compound 171, 2,7-dichloro-6-fluoro-4-[3-(trifluoromethyl)-7,8-dihydro-5H-1,6-naphthyridin-6-yl]quinazoline]	50	1280	
Fc1cc2ncnc(N3CCc4ncc(Oc5ccccc5F)cc4C3)c2cc1F [Compound 158, 6,7-difluoro-4-[3-(2-fluorophenoxy)-7,8-dihydro-5H-1,6-naphthyridin-6-yl]quinazoline]	80	270	
Cc1nc(N2CCc3ncc(-c4c(C)noc4C)cc3C2)c2cc(F)ccc2n1 [Compound 22, 4-[6-(6-fluoro-2-methyl-quinazolin-4-yl)-7,8-dihydro-5H-1,6-naphthyridin-3-yl]-3,5-dimethyl-isoxazole]	90	120	
Cc1ccc2nc(N(C)C)nc(N3CCc4ncc(C(F)(F)F)cc4C3)c2c1 [Compound 180, N,N,6-trimethyl-4-[3-(trifluoromethyl)-7,8-dihydro-5H-1,6-naphthyridin-6-yl]quinazolin-2-amine]		710	90
Cc1cc2n(n1)CCCN2c1cnc2c(c1)CN(c1ncnc3ccc(F)cc13)CC2 [Compound 226, 6-fluoro-4-(3-(2-methyl-6,7-dihydropyrazolo[1,5-a]pyrimidin-4(5H)-yl)-7,8-dihydro-1,6-naphthyridin-6(5H)-yl)quinazoline]	103	60	
Fc1ccc2ncnc(N3CCc4ncc(N5CCO[C@H](c6ccccc6)C5)cc4C3)c2c1 [Compound 216, (R)-4-(6-(6-fluoroquinazolin-4-yl)-5,6,7,8-tetrahydro-1,6-naphthyridin-3-yl)-2-phenylmorpholine]	81	1050	
Cc1nn(C)cc1-c1cnc2c(c1)CN(c1ncnc3cc(F)c(F)cc13)CC2 [Compound 8, 4-[3-(1,3-dimethylpyrazol-4-yl)-7,8-dihydro-5H-1,6-naphthyridin-6-yl]-6,7-difluoro-quinazoline]	87	60	
Cc1nc(N2CCc3ncc(C(F)(F)F)cc3C2)c2ccc(Br)cc2n1 [Compound 128, 7-bromo-2-methyl-4-[3-(trifluoromethyl)-7,8-dihydro-5H-1,6-naphthyridin-6-yl]quinazoline]	32	1740	
Fc1ccc2nc(Cl)nc(N3CCc4ncc(Br)cc4C3)c2c1 [Compound 150, 4-(3-bromo-7,8-dihydro-5H-1,6-naphthyridin-6-yl)-2-chloro-6-fluoro-quinazoline]	105	100	
Cc1nc(N2CCc3ncc(-c4cnn(C5CC5)c4)cc3C2)c2cc(C(F)(F)F)ccc2n1 [Compound 59, 4-[3-(1-cyclopropylpyrazol-4-yl)-7,8-dihydro-5H-1,6-naphthyridin-6-yl]-2-methyl-6-(trifluoromethyl)quinazoline]	58	1970	
FC(F)(F)c1ccc2nc(N3CCc4ncc(C5CC5)cc4C3)nc(N3CCc4ncc(C5CC5)cc4C3)c2c1 [Compound 163, 2,4-bis(3-cyclopropyl-7,8-dihydro-5H-1,6-naphthyridin-6-yl)-6-(trifluoromethyl)quinazoline]	57	> 10000	
CC1CN(c2ncnc3ccc(F)cc23)Cc2cc(C(F)(F)F)cnc21 (single isomer, unassigned) [Compound 116, 6-fluoro-4-[(8R or S)-8-methyl-3-(trifluoromethyl)-7,8-dihydro-5H-1,6-naphthyridin-6-yl]quinazoline]	113	70	
c1cnc2nc(NC3CCOC3)nc(N3CCc4ncc(N5CCCn6nccc65)cc4C3)c2c1 (stereo not drawn) [Compound 245, 4-(3-(6,7-dihydropyrazolo[1,5-a]pyrimidin-4(5H)-yl)-7,8-dihydro-1,6-naphthyridin-6(5H)-yl)-N-(tetrahydrofuran-3-yl)pyrido[2,3-d]pyrimidin-2-amine]	80	220	
Cc1nn(-c2cnc3c(c2)CN(c2ncnc4ccc(F)cc24)CC3)c2cccnc12 [Compound 218, 6-fluoro-4-(3-(3-methyl-1H-pyrazolo[4,3-b]pyridin-1-yl)-7,8-dihydro-1,6-naphthyridin-6(5H)-yl)quinazoline]	73	570	
CN(C)c1ccc(-c2cnc3c(c2)CN(c2ncnc4ccc(Cl)cc24)CC3)cn1 [Compound 41, 5-[6-(6-chloroquinazolin-4-yl)-7,8-dihydro-5H-1,6-naphthyridin-3-yl]-N,N-dimethyl-pyridin-2-amine]	74	430	
CC1CN(c2ncnc3ccc(Cl)cc23)Cc2cc(N3CCOCC3)cnc21 (stereo not drawn) [Compound 253, 4-(6-(6-chloroquinazolin-4-yl)-8-methyl-5,6,7,8-tetrahydro-1,6-naphthyridin-3-yl)morpholine]	96	30	
Fc1ccc2nc(N3CCCC3)nc(N3CCc4ncc(C(F)(F)F)cc4C3)c2c1 [Compound 195, 6-fluoro-2-pyrrolidin-1-yl-4-[3-(trifluoromethyl)-7,8-dihydro-5H-1,6-naphthyridin-6-yl]quinazoline]	95	730	

The next lines start with results.

Emax at 30 µM [%]	EC50 [nM]	Compound	Emax (CHO-K1) [%]
100	1300	Cc1ccc2ncnc(N3CCc4ncc(-c5ccccc5C)cc4C3)c2c1 [Compound 298, 6-methyl-4-(3-(o-tolyl)-7,8-dihydro-1,6-naphthyridin-6(5H)-yl)quinazoline]	
97	400	Cc1nc(N2CCc3ncc(C(C)(O)C(F)(F)F)cc3C2)c2cc(Cl)ccc2n1 (stereo not drawn) [Compound 291, 2-(6-(6-chloro-2-methylquinazolin-4-yl)-5,6,7,8-tetrahydro-1,6-naphthyridin-3-yl)-1,1,1-trifluoropropan-2-ol]	
93	180	C[C@@H]1CN(c2ncnc3cc(F)c(F)cc23)Cc2cc(N3CCOCC3)cnc21 [Compound 258, (R)-4-(6-(6,7-difluoroquinazolin-4-yl)-8-methyl-5,6,7,8-tetrahydro-1,6-naphthyridin-3-yl)morpholine]	
72	490	C[C@H]1CCN(c2cnc3c(c2)CN(c2ncnc4ccc(F)cc24)CC3)c2ccnn21 [Compound 289, (S)-6-fluoro-4-(3-(7-methyl-6,7-dihydropyrazolo[1,5-a]pyrimidin-4(5H)-yl)-7,8-dihydro-1,6-naphthyridin-6(5H)-yl)quinazoline]	
81	10	Fc1ccc2ncnc(N3CCc4ncc(Nc5ccncc5F)cc4C3)c2c1 [Compound 315, N-(3-fluoropyridin-4-yl)-6-(6-fluoroquinazolin-4-yl)-5,6,7,8-tetrahydro-1,6-naphthyridin-3-amine]	
54	3730	Cc1nc(N2CCc3ncc(-c4cc(F)c(F)cc4C)cc3C2)c2cc(F)ccc2n1 [Compound 307, 4-(3-(4,5-difluoro-2-methylphenyl)-7,8-dihydro-1,6-naphthyridin-6(5H)-yl)-6-fluoro-2-methylquinazoline]	
96	3600	Cc1ccccc1-c1cnc2c(c1)CN(c1ncnc3ccc(Cl)cc13)CC2 [Compound 300, 6-chloro-4-(3-(o-tolyl)-7,8-dihydro-1,6-naphthyridin-6(5H)-yl)quinazoline]	
